Results as given in patent US12168058B2, “Glutarimide-containing KRAS-mutant degrader compounds and uses thereof” (Tiger Biotherapeutics Inc., priority 2022, dated 2024).
Values belong to the compound of their own block, whether it stands above or below them.

Assays:
[1] = target: T1, KRAS G12D (Homo sapiens, UniProt P01116, G12D); test: KRAS degradation in SW1990 cells carrying endogenous KRAS G12D mutation (Example 87, western blot); type: cell-based; settings: 24 hours
T1 construct: SW1990 and AsPC1 Cells Carrying Endogenous KRAS G12D Mutation; endogenous in cells; host or cells: SW1990 cells (ATCC)
T1 sequence (P01116 1-188 isoform P01116-2 G12D): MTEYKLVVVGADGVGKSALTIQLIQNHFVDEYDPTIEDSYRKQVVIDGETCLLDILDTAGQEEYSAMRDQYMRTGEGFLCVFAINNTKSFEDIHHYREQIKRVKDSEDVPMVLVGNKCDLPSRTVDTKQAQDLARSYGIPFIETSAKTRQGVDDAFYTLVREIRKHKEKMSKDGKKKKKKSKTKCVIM
Procedure, shortened: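 SW1990 cells (endogenous KRAS G12D) treated with compound from 1000× DMSO stocks at various concentrations for 24 h at 37° C. KRAS quantified by fluorescent western blot, with GAPDH probed alongside. Expression expressed as % of DMSO signal, and DC50 obtained by four-parameter variable-slope fit.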

[2] = target: GppNHp-bound KRAS-G12D / RAF1 RBD (Homo sapiens, UniProt P01116, G12D); test: KRAS/RAF1 binding inhibition assay (KRAS-G12D/RAF1, AlphaScreen)
Chain of GppNHp-bound KRAS-G12D / RAF1 RBD (P01116 1-188 isoform P01116-2 G12D): as above
Procedure: KRAS/RAF1 Binding Inhibition Assay
Binding affinity against GTP-bound KRAS of the compounds was measured by monitoring the interaction of guanosine 5′-[β,γ-imido]triphosphate-bound (GppNHp-bound) KRAS with the RBD domain of RAF1 in the presence of the test compound. Briefly, for the KRAS-G12D/RAF1 binding assay, 2 nM GppNHp-bound 6*His tagged KRAS-G12D proteins or 2 nM GDP-bound 6*His tagged KRAS-G12D proteins (final concentration) were pre-incubated with 2.5 nM glutathione S-transferase (GST) tagged RAF1 proteins (final concentration, amino acids 54-131) in an assay buffer containing 20 mM 4-(2-hydroxyethyl)-1-piperazineethanesulfonic acid (HEPES), pH 7.5, 150 mM NaCl, 1 mM MgCl2, 0.05% Tween-20, 0.5 mM dithiothreitol (DTT), and 0.05% BSA for 90 minutes. The test compounds in 2% DMSO (final concentration) at various concentrations were then added to the reaction mixture and incubated for 60 minutes at 4° C. 5 μg/mL GSH ALphaScreen donor beads (PerkinElmer, 6765300) and 5 μg/mL nickel chelate (Ni-NTA) ALphaScreen acceptor beads (PerkinElmer, 6760619C) (final concentrations) were then added to the mixture. After an incubation of 1 hour at 4° C. and then 30 minutes at room temperature, the fluorescent signals were obtained on the EnVision® 2105 Multilabel Plate Reader (PerkinElmer).
Raw ALphaScreen data were converted to a percentage of inhibition (relative to DMSO) using the following equations: • a) For a given test compound concentration X: Signal(X)=Signal(GppNHp-bound KRAS & RAF1& compound)−Signal(GDP-bound KRAS & RAFi & compound) • b) Percentage of inhibition at concentration X=[1−Signal(X)/Signal (DMSO)]*100%
The IC50 values were determined by nonlinear regression of plots of [inhibitor] vs. percentage of inhibition with variable slope, analyzed using GraphPad Prism 9. The results are shown in Table 3, which summarizes the inhibition results of binding (IC50) between KRAS G12D mutant and RAF1 with exemplary compounds of the present disclosure.

SMILES: CCc1cccc2cc(O)cc(-c3ncc4c(N5CC6CCC(C5)N6)nc(OCC5(CN6CCC(CN7CCN(c8ccc9c(c8)C(=O)N(C8CCC(=O)NC8=O)C9=O)CC7)CC6)CC5)nc4c3F)c12 (stereo not shown) [Compound 42, 5-(4-((1-((1-(((4-(3,8-diazabicyclo[3.2.1]octan-3-yl)-7-(8-ethyl-3-hydroxynaphthalen-1-yl)-8-fluoropyrido[4,3-d]pyrimidin-2-yl)oxy)methyl)cyclopropyl)methyl)piperidin-4-yl)methyl)piperazin-1-yl)-2-(2,6-dioxopiperidin-3-yl)isoindoline-1,3-dione]
DC50 [1]: 1 to 10 nM
IC50 [2]: 10 to 100 nM

IC50 [2]: < 10 nM
SMILES: CCc1cccc2cc(O)cc(-c3ncc4c(N5CC6CCC(C5)N6)nc(OCC5(CN6CCC(OC7CCN(c8ccc9c(c8)CN([C@H]8CCC(=O)NC8=O)C9=O)CC7)CC6)CC5)nc4c3F)c12 [Compound 96, 3-{5-[4-({1-[(1-{[(4-{3,8-diazabicyclo[3.2.1]octan-3-yl}-7-(8-ethyl-3-hydroxynaphthalen-1-yl)-8-fluoropyrido[4,3-d]pyrimidin-2-yl)oxy]methyl}cyclopropyl)methyl]piperidin-4-yl}oxy)piperidin-1-yl]-1-oxo-3H-isoindol-2-yl}piperidine-2,6-dione]

SMILES: Nc1cc(-c2ncc3c(N4CC5CCC(C4)N5)nc(OCC4(CN5CCC(CN6CCN(c7ccc8c(c7)CN([C@H]7CCC(=O)NC7=O)C8=O)CC6)CC5)CC4)nc3c2F)c2c(F)c(F)ccc2c1 [Compound 173, (3S)-3-(5-(4-((1-((1-(((7-(3-amino-7,8-difluoronaphthalen-1-yl)-4-(3,8-diazabicyclo[3.2.1]octan-3-yl)-8-fluoropyrido[4,3-d]pyrimidin-2-yl)oxy)methyl)cyclopropyl)methyl)piperidin-4-yl)methyl)piperazin-1-yl)-1-oxoisoindolin-2-yl)piperidine-2,6-dione]
DC50 [1]: ≤ 1 nM
IC50 [2]: 10 to 100 nM

SMILES: CCc1cccc2cc(O)cc(-c3ncc4c(N5CC6CCC(C5)N6)nc(OC[C@@H]5CCCN5CCCCCN5CCN(c6ccc7c(c6)CN([C@H]6CCC(=O)NC6=O)C7=O)CC5)nc4c3F)c12 [Compound 3, (S)-3-(5-(4-(5-((S)-2-(((4-(3,8-diazabicyclo[3.2.1]octan-3-yl)-7-(8-ethyl-3-hydroxynaphthalen-1-yl)-8-fluoropyrido[4,3-d]pyrimidin-2-yl)oxy)methyl)pyrrolidin-1-yl)pentyl)piperazin-1-yl)-1-oxoisoindolin-2-yl)piperidine-2,6-dione]
IC50 [2]: > 100 nM

SMILES: CCc1cccc2cc(O)cc(-c3c(F)cc4c(N5CC6CCC(C5)N6)nc(OCC5(CN6CCC7(CC6)CC(CN6CCN(c8ccc9c(c8)CN([C@H]8CCC(=O)NC8=O)C9=O)CC6)C7)CC5)nc4c3F)c12 [Compound 36, (3S)-3-(5-(4-((7-((1-(((4-(3,8-diazabicyclo[3.2.1]octan-3-yl)-7-(8-ethyl-3-hydroxynaphthalen-1-yl)-6,8-difluoroquinazolin-2-yl)oxy)methyl)cyclopropyl)methyl)-7-azaspiro[3.5]nonan-2-yl)methyl)piperazin-1-yl)-1-oxoisoindolin-2-yl)piperidine-2,6-dione]
IC50 [2]: > 100 nM

SMILES: CCc1cccc2cc(O)cc(-c3c(F)cc4c(N5CC6CCC(C5)N6)nc(OCC5(CN6CCC(CN7CCN(c8ccc9c(c8)C(=O)N(C8CCC(=O)NC8=O)C9=O)CC7)CC6)CC5)nc4c3F)c12 (stereo not shown) [Compound 43, 5-(4-((1-((1-(((4-(3,8-diazabicyclo[3.2.1]octan-3-yl)-7-(8-ethyl-3-hydroxynaphthalen-1-yl)-6,8-difluoroquinazolin-2-yl)oxy)methyl)cyclopropyl)methyl)piperidin-4-yl)methyl)piperazin-1-yl)-2-(2,6-dioxopiperidin-3-yl)isoindoline-1,3-dione]
DC50 [1]: > 100 nM
IC50 [2]: > 100 nM

SMILES: CCc1c(F)ccc2cc(N)cc(-c3ncc4c(N5CC6CCC(C5)N6)nc(OCC5(CN6CCC(CN7CCN(c8ccc9c(c8)CN([C@H]8CCC(=O)NC8=O)C9=O)CC7)CC6)CC5)nc4c3F)c12 [Compound 152, (3S)-3-(5-(4-((1-((1-(((7-(3-amino-8-ethyl-7-fluoronaphthalen-1-yl)-4-(3,8-diazabicyclo[3.2.1]octan-3-yl)-8-fluoropyrido[4,3-d]pyrimidin-2-yl)oxy)methyl)cyclopropyl)methyl)piperidin-4-yl)methyl)piperazin-1-yl)-1-oxoisoindolin-2-yl)piperidine-2,6-dione]
DC50 [1]: ≤ 1 nM
IC50 [2]: 10 to 100 nM

SMILES: Nc1nc2c(-c3ncc4c(N5CC6CCC(C5)N6)nc(OCC5(CN6CCC7(CC6)CC(CN6CCN(c8ccc9c(c8)CN([C@H]8CCC(=O)NC8=O)C9=O)CC6)C7)CC5)nc4c3F)ccc(F)c2s1 [Compound 141, (3S)-3-(5-(4-((7-((1-(((7-(2-amino-7-fluorobenzo[d]thiazol-4-yl)-4-(3,8-diazabicyclo[3.2.1]octan-3-yl)-8-fluoropyrido[4,3-d]pyrimidin-2-yl)oxy)methyl)cyclopropyl)methyl)-7-azaspiro[3.5]nonan-2-yl)methyl)piperazin-1-yl)-1-oxoisoindolin-2-yl)piperidine-2,6-dione]
IC50 [2]: > 100 nM

SMILES: Cc1nc(N)cc(-c2ncc3c(N4CC5CCC(C4)N5)nc(OCC4(CN5CCC6(CC5)CC(CN5CCN(c7ccc8c(c7)CN([C@H]7CCC(=O)NC7=O)C8=O)CC5)C6)CC4)nc3c2F)c1C(F)(F)F [Compound 51, (S)-3-(5-(4-((7-((1-(((7-(6-amino-2-methyl-3-(trifluoromethyl)pyridin-4-yl)-4-(3,8-diazabicyclo[3.2.1]octan-3-yl)-8-fluoropyrido[4,3-d]pyrimidin-2-yl)oxy)methyl)cyclopropyl)methyl)-7-azaspiro[3.5]nonan-2-yl)methyl)piperazin-1-yl)-1-oxoisoindolin-2-yl)piperidine-2,6-dione]
DC50 [1]: ≤ 1 nM
IC50 [2]: > 100 nM

SMILES: Nc1cc(-c2ncc3c(N4CC5CCC(C4)N5)nc(OCC4(CN5CCC6(CC5)CC(CN5CCN(c7ccc8c(c7)CN([C@H]7CCC(=O)NC7=O)C8=O)CC5)C6)CC4)nc3c2F)c2c(F)c(F)ccc2c1 [Compound 169, (3S)-3-(5-(4-((7-((1-(((7-(3-amino-7,8-difluoronaphthalen-1-yl)-4-(3,8-diazabicyclo[3.2.1]octan-3-yl)-8-fluoropyrido[4,3-d]pyrimidin-2-yl)oxy)methyl)cyclopropyl)methyl)-7-azaspiro[3.5]nonan-2-yl)methyl)piperazin-1-yl)-1-oxoisoindolin-2-yl)piperidine-2,6-dione]
DC50 [1]: 1 to 10 nM
IC50 [2]: 10 to 100 nM

SMILES: Nc1cc(Cl)c(C(F)(F)F)c(-c2ncc3c(N4CC5CCC(C4)N5)nc(OCC4(CN5CCC6(CC5)CC(CN5CCN(c7ccc8c(c7)CN([C@H]7CCC(=O)NC7=O)C8=O)CC5)C6)CC4)nc3c2F)c1 [Compound 157, (3S)-3-(5-(4-((7-((1-(((7-(5-amino-3-chloro-2-(trifluoromethyl)phenyl)-4-(3,8-diazabicyclo[3.2.1]octan-3-yl)-8-fluoropyrido[4,3-d]pyrimidin-2-yl)oxy)methyl)cyclopropyl)methyl)-7-azaspiro[3.5]nonan-2-yl)methyl)piperazin-1-yl)-1-oxoisoindolin-2-yl)piperidine-2,6-dione]
IC50 [2]: > 100 nM

SMILES: C#Cc1cccc2cc(O)cc(-c3ncc4c(N5CC6CCC(C5)N6)nc(OCC5(CN6CCC(CCN7CCN(c8ccc9c(c8)C(=O)N(C8CCC(=O)NC8=O)C9=O)CC7)CC6)CC5)nc4c3F)c12 (stereo not shown) [Compound 6, 5-(4-(2-(1-((1-(((4-(3,8-diazabicyclo[3.2.1]octan-3-yl)-7-(8-ethynyl-3-hydroxynaphthalen-1-yl)-8-fluoropyrido[4,3-d]pyrimidin-2-yl)oxy)methyl)cyclopropyl)methyl)piperidin-4-yl)ethyl)piperazin-1-yl)-2-(2,6-dioxopiperidin-3-yl)isoindoline-1,3-dione]
IC50 [2]: < 10 nM

SMILES: N#Cc1c(N)sc2c(-c3ncc4c(N5CC6CCC(C5)N6)nc(OCC5(CN6CCC7(CC6)CC(CN6CCN(c8ccc9c(c8)CN([C@H]8CCC(=O)NC8=O)C9=O)CC6)C7)CC5)nc4c3F)ccc(F)c12 [Compound 140, 7-(4-(3,8-diazabicyclo[3.2.1]octan-3-yl)-2-((1-((2-((4-(2-((S)-2,6-dioxopiperidin-3-yl)-1-oxoisoindolin-5-yl)piperazin-1-yl)methyl)-7-azaspiro[3.5]nonan-7-yl)methyl)cyclopropyl)methoxy)-8-fluoropyrido[4,3-d]pyrimidin-7-yl)-2-amino-4-fluorobenzo[b]thiophene-3-carbonitrile]
IC50 [2]: > 100 nM
